Measurements as given in patent publication US20230399327A1, “HIGH ACTIVITY HPK1 KINASE INHIBITOR” (ADLAI NORTYE BIOPHARMA CO., LTD., priority 2020, published 2023).

These molecules were tested against HPK1 kinase (Homo sapiens (Human), UniProt Q92918) (assay: HPK1 kinase activity inhibition (ADP-Glo Kinase Assay)). Details: HPK1, MBP substrate, ATP, 25° C. 60 min.
Format: biochemical
Procedure: Test Example 1: Detection of Compound's Ability to Inhibit HPK1 Kinase Activity (Method 1)
The specific operation is as follows: configure the enzymatic reaction system buffer (10 mM MOPS, pH 7.2, 5 mM β-glycerol-phosphate, 10 mM MgCl2, 0.8 mM EDTA, 2 mM EGTA, 0.1 mM DTT); the test compound (1 mM the compound stock solution in DMSO) was diluted with buffer to the highest concentration of 60 uM (containing 6% DMSO), and the compound with a concentration of 60 μM was initially diluted 5 times with a buffer containing 6% DMSO for a total of 8 points of gradient concentration; then dilute HPK1 kinase to 30 nM in buffer. Add 2 μl of HPK1 kinase diluent to each well of a Greiner 384-well microplate (Cat. No. 784075), and add 2 μl of buffer to the control well; add 1 μl of the diluted compound to the reaction well after brief centrifugation, and add 1 μl buffer solution containing 6% DMSO to the control well; after short centrifugation, place in a 25° C. constant temperature incubator (Shanghai Yiheng Scientific Instrument Co., Ltd., Cat. No.: LRH-150) and incubate for 20 minutes. Add 3 μl of reaction substrate (10 μM MBP and 20 μM ATP dissolved in distilled water) to each well, briefly centrifuge and incubate in a constant temperature incubator at 25° C. for 60 min, and use ADP-Glo Kinase Assay Kit to detect the enzymatic reaction activity, ADP-Glo Kinase Assay Kit detection is carried out according to the operating instructions of the kit. Data are described using the half maximal inhibitory concentration IC50 of the compound.

HPK1 kinase, sequence (Q92918 whole entry): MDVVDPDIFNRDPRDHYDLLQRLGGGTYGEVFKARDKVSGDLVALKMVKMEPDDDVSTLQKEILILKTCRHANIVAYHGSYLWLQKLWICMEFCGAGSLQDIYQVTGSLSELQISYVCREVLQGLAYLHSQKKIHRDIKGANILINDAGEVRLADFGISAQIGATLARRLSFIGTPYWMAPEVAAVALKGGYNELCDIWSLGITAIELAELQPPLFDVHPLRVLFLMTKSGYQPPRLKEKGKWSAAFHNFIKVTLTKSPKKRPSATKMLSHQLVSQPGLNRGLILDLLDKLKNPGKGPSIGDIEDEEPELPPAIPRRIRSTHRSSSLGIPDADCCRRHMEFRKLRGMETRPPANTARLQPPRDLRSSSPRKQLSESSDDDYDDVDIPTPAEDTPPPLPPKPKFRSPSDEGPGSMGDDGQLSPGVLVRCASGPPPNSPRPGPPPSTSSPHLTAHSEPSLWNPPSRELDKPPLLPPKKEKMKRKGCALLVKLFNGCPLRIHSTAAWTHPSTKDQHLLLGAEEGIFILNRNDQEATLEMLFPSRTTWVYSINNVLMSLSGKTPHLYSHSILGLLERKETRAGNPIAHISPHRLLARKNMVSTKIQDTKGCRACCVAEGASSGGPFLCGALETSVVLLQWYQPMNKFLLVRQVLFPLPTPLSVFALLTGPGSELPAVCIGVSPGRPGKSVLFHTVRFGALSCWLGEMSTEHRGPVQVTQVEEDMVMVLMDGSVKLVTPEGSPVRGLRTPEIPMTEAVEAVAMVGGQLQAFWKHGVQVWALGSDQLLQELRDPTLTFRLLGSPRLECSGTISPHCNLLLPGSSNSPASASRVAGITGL

| SMILES | IC50 [nM] |
| --- | --- |
| COc1ncccc1-c1cccc2cnc(Nc3cc4c(nc3C)CCN(C)C4)nc12 [Example 48, N-(2,6-dimethyl-5,6,7,8-tetrahydro-1,6-naphthyridin-3-yl)-8-(2-methoxypyridin-3-yl)quinazolin-2-amine] | 1.93 |
| COc1ccccc1-c1cccc2cnc(Nc3cc4c(nc3C)CCN(C)C4)nc12 [Example 46, N-(2,6-dimethyl-5,6,7,8-tetrahydro-1,6-naphthyridin-3-yl)-8-(2-methoxyphenyl)quinazoline-2-amine] | 0.15 |
| COc1nc2c(cc1Nc1ncc3cccc(-c4cccnc4)c3n1)CN(C)CC2 [Example 9, N-(2-methoxy-6-methyl-5,6,7,8-tetrahydro-1,6-naphthyridin-3-yl)-8-(pyridin-3-yl)quinazoline-2-amine] | 3.49 |
| COc1nc2c(cc1Nc1ncc3ccnc(N[C@@H](C)C(C)(C)C)c3n1)CN(C)CC2 [Example 42, (S)—N8-(3,3-dimethylbut-2-yl)-N2-(2-methoxy-6-methyl-5,6,7,8-tetrahydro-1,6-naphthyridin-3-yl)pyrido[3,4-d]pyrimidine-2,8-diamine] | < 0.1 |
| COc1ccccc1-c1nccc2cnc(Nc3cc4c(nc3OC)CCN(C)C4)nc12 [Example 25, N-(2-methoxy-6-methyl-5,6,7,8-tetrahydro-1,6-naphthyridin-3-yl)-8-(2-methoxyphenyl)pyrido [3,4-d]pyrimidin-2-amine] | 0.16 |
| COc1ccccc1-c1cccc2cnc(Nc3cnc4c(c3)CN(C)CC4)nc12 [Example 45, 8-(2-methoxyphenyl)-N-(6-methyl-5,6,7,8-tetrahydro-1,6-naphthyridin-3-yl)quinazolin-2-amine] | < 0.1 |
| COc1nc2c(cc1Nc1ncc3cccc(-c4cnn(C)c4)c3n1)CN(C)CC2 [Example 8, N-(2-methoxy-6-methyl-5,6,7,8-tetrahydro-1,6-naphthyridin-3-yl)-8-(1-methyl-1H-pyrazole-4-yl)quinazolin-2-amine] | 1.84 |
| COc1nc2c(cc1Nc1ncc3cccc(C4=CCN(C(=O)OC(C)(C)C)CC4)c3n1)CN(C)CC2 [Example 15, 4-(2-((2-methoxy-6-methyl-5,6,7,8-tetrahydro-1,6-naphthyridin-3-yl)amino)quinazolin-8-yl)-3,6-Dihydropyridine-1(2H)-carboxylic acid tert-butyl ester] | 9.85 |
| COc1nc2c(cc1Nc1ncc3cccc(C4=CCN(C(C)=O)CC4)c3n1)CN(C)CC2 [Example 17, 1-(4-(2-((2-methoxy-6-methyl-5,6,7,8-tetrahydro-1,6-naphthyridin-3-yl)amino)quinazoline-8-yl)-3,6-dihydropyridin-1(2H)-yl)ethan-1-one] | < 0.1 |
| Cc1c(-c2cccc3cnc(Nc4cc5c([nH]c4=O)CCN(C)C5)nc23)cnn1C [Example 61, 3-((8-(1,5-dimethyl-1H-pyrazol-4-yl)quinazolin-2-yl)amino)-6-methyl-5,6,7,8-tetrahydro-1,6-naphthyridin-2(1H)-one] | < 0.1 |
| COc1nc2c(cc1Nc1ncc3ccnc(-c4ccc(=O)n(C)c4)c3n1)CN(C)CC2 [Example 27, 5-(2-((2-methoxy-6-methyl-5,6,7,8-tetrahydro-1,6-naphthyridin-3-yl)amino)pyrido[3,4-d]pyrimidino-8-yl)-1-methylpyridin-2(1H)-one] | 16.2 |
| COCCn1c2c(cc(Nc3ncc4ccnc(N5CCC(F)(F)CC5)c4n3)c1=O)CN(C)CC2 [Example 87, 3-((8-(4,4-difluoropiperidin-1-yl)pyrido[3,4-d]pyrimidin-2-yl)amino)-1-(2-methoxyethyl)-6-methyl-5,6,7,8-tetrahydro-1,6-naphthyridin-2(1H)-one] | 19.9 |
| COc1nc2c(cc1Nc1ncc3cccc(C4=CCOCC4)c3n1)CN(C)CC2 [Example 7, 8-(3,6-dihydro-2H-pyran-4-yl)-N-(2-methoxy-6-methyl-5,6,7,8-tetrahydro-1,6-naphthalenepyridin-3-yl)quinazolin-2-amine] | 1.22 |
| Cn1c2c(cc(Nc3ncc4ccnc(N5CCSCC5)c4n3)c1=O)CN(CCO)CC2 [Example 84, 6-(2-hydroxyethyl)-1-methyl-3-((8-thiomorpholinopyrido[3,4-d]pyrimidin-2-yl)amino)-5,6,7,8-tetrahydro-1,6-naphthyridin-2(1H)-one] | 0.43 |
| CN1CCc2[nH]c(=O)c(Nc3ncc4ccnc(N5CCCCC5)c4n3)cc2C1 [Example 63, 6-methyl-3-((8-(piperidin-1-yl)pyrido[3,4-d]pyrimidin-2-yl)amino)-5,6,7,8-tetrahydro-1,6-naphthyridin-2(1H)-one] | 31.3 |
| CCOc1nc2c(cc1Nc1ncc3cccc(-c4cnn(C)c4C)c3n1)CN(C)CC2 [Example 55, 8-(1,5-dimethyl-1H-pyrazol-4-yl)-N-(2-ethoxy-6-methyl-5,6,7,8-tetrahydro-1,6-naphthyridin-3-yl)quinazolin-2-amine] | 0.66 |
| CNC(=O)c1cccc(-c2cccc3cnc(Nc4cc5c(nc4OC)CCN(C)C5)nc23)c1 [Example 14, 3-(2-((2-methoxy-6-methyl-5,6,7,8-tetrahydro-1,6-naphthyridin-3-yl)amino)quinazolin-8-yl)-N-methylbenzamide] | 1.92 |
| COc1nc2c(cc1Nc1ncc3cccc(-c4ccccc4SC)c3n1)CN(C)CC2 [Example 19, N-(2-methoxy-6-methyl-5,6,7,8-tetrahydro-1,6-naphthyridin-3-yl)-8-(2-(methylthio)phenyl) Quinazolin-2-amine] | < 0.1 |
| COC(=O)c1cccc(-c2cccc3cnc(Nc4cc5c(nc4OC)CCN(C)C5)nc23)c1 [Example 13, 3-(2-((2-methoxy-6-methyl-5,6,7,8-tetrahydro-1,6-naphthyridin-3-yl)amino)quinazolin-8-yl) methyl benzoate] | < 0.1 |
| CNC(=O)c1ccccc1-c1cccc2cnc(Nc3cc4c(nc3OC)CCN(C)C4)nc12 [Example 12, 2-(2-((2-methoxy-6-methyl-5,6,7,8-tetrahydro-1,6-naphthyridin-3-yl)amino)quinazolin-8-yl)-N-methylbenzamide] | 37.8 |
| COc1nc2c(cc1Nc1ncc3cccc(NCc4ccccc4)c3n1)CN(C)CC2 [Example 38, N8-Benzyl-N2-(2-methoxy-6-methyl-5,6,7,8-tetrahydro-1,6-naphthyridin-3-yl)quinazoline-2,8-diamine] | 0.41 |
| COc1nc2c(cc1Nc1ncc3cccc(-c4ccccc4F)c3n1)CN(C)CC2 [Example 4, 8-(2-fluorophenyl)-N-(2-methoxy-6-methyl-5,6,7,8-tetrahydro-1,6-naphthyridin-3-yl)quinazoline-2-amine] | < 0.1 |
| COc1nc2c(cc1Nc1ncc3cccc(-c4ccn(C)n4)c3n1)CN(C)CC2 [Example 30, N-(2-methoxy-6-methyl-5,6,7,8-tetrahydro-1,6-naphthyridin-3-yl)-8-(1-methyl-1H-pyrazole-3-yl)quinazolin-2-amine] | 0.27 |
| CCOc1nc2c(cc1Nc1ncc3ccnc(N[C@H](C)C(C)(C)C)c3n1)CN(C)CC2 [Example 58, (R)—N8-(3,3-dimethylbut-2-yl)-N2-(2-ethoxy-6-methyl-5,6,7,8-tetrahydro-1,6-Naphthyridin-3-yl)pyrido[3,4-d]pyrimidine-2,8-diamine] | < 0.1 |
| COc1nc2c(cc1Nc1ncc3ccnc(N4CCCCC4)c3n1)CN(C)CC2 [Example 33, N-(2-methoxy-6-methyl-5,6,7,8-tetrahydro-1,6-naphthyridin-3-yl)-8-(piperidin-1-yl) pyrido[3,4-d]pyrimidin-2-amine] | 0.52 |
| COc1nc2c(cc1Nc1ncc3ccnc(-c4cc(C)nn4C)c3n1)CN(C)CC2 [Example 43, 8-(1,3-Dimethyl-1H-pyrazol-5-yl)-N-(2-methoxy-6-methyl-5,6,7,8-tetrahydro-1,6-naphthyridin-3-yl)pyrido[3,4-d]pyrimidin-2-amine] | 4.67 |
| CN1CCc2[nH]c(=O)c(Nc3ncc4ccnc(N5CCOCC5)c4n3)cc2C1 [Example 49, 6-methyl-3-((8-morpholinopyrido[3,4-d]pyrimidin-2-yl)amino)-5,6,7,8-tetrahydro-1,6-naphthyridine-2(1H)-one] | 26.9 |
| Cn1c2c(cc(Nc3ncc4ccnc(N5CCC(F)(F)CC5)c4n3)c1=O)CN(CCO)CC2 [Example 82, 3-((8-(4,4-difluoropiperidin-1-yl)pyrido[3,4-d]pyrimidin-2-yl)amino)-6-(2-hydroxyethyl)-1-methyl-5,6,7,8-tetrahydro-1,6-naphthyridin-2(1H)-one] | < 0.1 |
| CCOc1nc2c(cc1Nc1ncc3cccc(-c4c(C)nn(C)c4C)c3n1)CN(C)CC2 [Example 67, N-(2-ethoxy-6-methyl-5,6,7,8-tetrahydro-1,6-naphthyridin-3-yl)-8-(1,3,5-trimethyl-1H-pyrazol-4-yl)quinazolin-2-amine] | 23.3 |
| CCOc1nc2c(cc1Nc1ncc3ccnc(N4CC(C)(C)C4)c3n1)CN(C)CC2 [Example 65, 8-(3,3-dimethylazetidin-1-yl)-N-(2-ethoxy-6-methyl-5,6,7,8-tetrahydro-1,6-Naphthyridin-3-yl)pyrido[3,4-d]pyrimidin-2-amine] | 20.1 |
